Data set [1] relates to dextromethorphan metabolism. Description: Urinary DM/DR ratios (Example 1). The conditions noted are these: urine, several hours after single 60 mg oral DM; ALS patients, one value per patient. As for the experimental part: Six patients suffering from ALS were administered orally a single 60 mg dextromethorphan dose. Several hours later, a urine sample was collected, and the urine concentrations of dextromethorphan (DM) and dextrorphan (DR) were measured as described below to determine a DM/DR ratio.
To this was added 2000 units of betaglucuronidase in 1 mL of acetate buffer (0.1M, pH 5.0). The mixture was incubated for 18 hours at 37° C. and then extracted by adding 1 mL of phosphate buffer (pH 12, 0.10M) and 7 mL of n-butanol/hexane (10:90 v/v). After mixing and centrifugation, the organic layer was transferred to a clean tube, acidified with 400 uL of 0.01N HCL and 20 microliters (uL) of aqueous phase injected into a high performance liquid chromatography (HPLC) system. The HPLC used a phenyl column equilibrated with a mobile phase of acetonitrile:water (51:49 v/v) containing 10 mM KHPO4, 10 mM hexane sulfonic acid, pH 4.0 (flow rate 1.2 mL/min).
Briefly, 0.5 ml urine samples were spiked with 500 nanograms (ng) of dimethacrine. The urine pH was adjusted to […] with 0.1M acetate buffer (usually about 1.0 ml), and beta-glucuronidase was added (2000 units/ml urine). The mixture was incubated and shaken at 37° C. for 18 hours. The urine was subsequently adjusted to pH 10-11 with 1.0 mL of phosphate buffer and the urine extracted with 5 mL of dichloromethane. […]

Data set [2] can be described thus: Plasma concentrations of DM (Example 2). Format: in vivo, human. The following applies: DM 120 MG/DAY oral, quinidine 0; blood 10-12 hours later; one value per patient; listed as dextromethorphan. The method, then: Between 10 and 12 hours later, blood was sampled, blood plasma was isolated by centrifugation, and the plasma was analyzed to determine the DM concentration using the thebaine/HPLC method.
Between 10 and 12 hours later, blood was sampled and the plasma was analyzed for DM using thebaine/HPLC.

For data set [3], the system named is DM oxidation. Description: Urinary DM/DRP ratio with other antioxidants (Example 4). The following applies: urine; for baseline DM/DRP ratio: DM alone. The method, then:
In these tests, DM was administered at a constant dosage to various individuals, all were healthy volunteers. DM was taken both before and after a candidate antioxidant was taken, and urine samples were collected at appropriate times and analyzed to determine the quantity of DM and its principle metabolite dextrorphan (DRP) in the urine.
Twelve healthy volunteers were studied.
After the baseline DM/DRP value for each volunteer had been determined, a candidate antioxidant was administered. […] After an appropriate delay, a second urine sample was obtained and analyzed. Each agent was administered to two patients.

In data set [4] the test system is patients with emotional lability. The conditions noted are these: patients with bilateral neurological damage; described in U.S. Pat. No. 5,206,248; cited from earlier work.
The target in data set [5] is debrisoquin hydroxylase (Homo sapiens, UniProt P10635). The following applies: cited from earlier work.
debrisoquin hydroxylase, sequence (P10635 whole entry): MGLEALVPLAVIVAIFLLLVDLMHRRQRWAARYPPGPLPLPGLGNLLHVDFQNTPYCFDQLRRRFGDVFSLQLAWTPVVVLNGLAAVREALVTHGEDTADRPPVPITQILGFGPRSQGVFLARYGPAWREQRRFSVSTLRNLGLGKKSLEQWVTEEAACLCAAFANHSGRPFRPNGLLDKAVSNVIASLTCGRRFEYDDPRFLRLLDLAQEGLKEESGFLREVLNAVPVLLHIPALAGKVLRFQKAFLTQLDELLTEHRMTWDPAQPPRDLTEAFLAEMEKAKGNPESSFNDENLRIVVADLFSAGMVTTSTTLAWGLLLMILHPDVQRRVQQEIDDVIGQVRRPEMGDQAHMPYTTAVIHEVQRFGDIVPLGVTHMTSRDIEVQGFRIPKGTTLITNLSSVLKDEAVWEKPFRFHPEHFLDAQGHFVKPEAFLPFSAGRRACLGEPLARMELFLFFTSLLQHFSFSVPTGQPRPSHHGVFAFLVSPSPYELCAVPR

Molecules are shown by their SMILES. Values joined by “and” are separate entries in the source; they are usually repeats but may differ in a detail not shown here. Equal entries are not always repeated.

Turning to `COc1ccc2c(c1)[C@@]13CCCC[C@H]1[C@@H](C2)N(C)CC3` [DM, (+)-3-methoxy-N-methylmorphinan], the “DM/DR Ratio, no quinidine” value in data set [1] was <0.0002 and 0.054 and 0.0048 and 0.0220 and 0.0002 and 0.0003. Further, the “DEXTROMETHORPHAN PLASMA LEVEL” value in data set [2] is 9.3 NG/ML and NOT DETECTABLE (2×) and 16.5 NG/ML and 6.05 NG/ML. Besides, the “baseline DM/DRP ratio” value in data set [3] (extensive metabolizers, healthy volunteers) is not above 0.06; in data set [3] (one poor metabolizer (control)) it was 1.338. The “DM/DRP ratio, pre-drug baseline” value in data set [3] (DM before candidate antioxidant, single subjects) is 0.02 (2×) and 0.00 (3×) and 0.03 and 0.06 (2×). The “effect on symptoms of emotional lability” value in data set [4] was “not observed in any patients who received DM alone”.

Take `CC(CCc1ccccc1)NCC(O)c1ccc(O)c(C(N)=O)c1` (stereo not shown) [labetalol]: the Ki in data set [5] was not above 50 µM.

Take `Cc1cccc(C)c1OCC(C)N` (stereo not shown) [mexiletine]: the Ki in data set [5] is not above 50 µM.

As to `CNCCC=C1c2ccccc2CCc2ccccc21` [nortriptyline], the Ki in data set [5] is not above 50 µM.

Consider `C=CCOc1ccccc1OCC(O)CNC(C)C` (stereo not shown) [oxprenolol], for which the Ki in data set [5] was not above 50 µM.

The record behind these values is USRE38115E1, “Dextromethorphan and an oxidase inhibitor for treating intractable conditions” (Center for Neurologic Study, priority 1996, dated 2003).
